Test results published in article PMC3551575 (Molecular microbiology, 2011).

Legend:
FurX = target: T1, FurX (Cupriavidus pinatubonensis, UniProt Q46UZ9); assay: affinity measurement, method only in supplement; assay type: binding
T1 sequence (Q46UZ9 1-342): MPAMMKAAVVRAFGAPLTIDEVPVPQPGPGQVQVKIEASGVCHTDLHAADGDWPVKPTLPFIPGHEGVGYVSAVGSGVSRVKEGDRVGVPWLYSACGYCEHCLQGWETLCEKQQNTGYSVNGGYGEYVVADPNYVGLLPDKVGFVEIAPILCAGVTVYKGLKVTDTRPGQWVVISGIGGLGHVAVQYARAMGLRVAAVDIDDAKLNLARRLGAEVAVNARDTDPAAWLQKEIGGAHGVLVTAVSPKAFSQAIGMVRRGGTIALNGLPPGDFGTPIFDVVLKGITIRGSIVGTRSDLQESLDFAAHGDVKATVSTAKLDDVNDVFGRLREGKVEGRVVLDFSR

[1] = target: FurX, Zn-dependent alcohol dehydrogenase from Cupriavidus necator JMP134 (Cupriavidus necator JMP134); assay: SEC-MALS

Row | Compound | Kd (FurX) [µM] | stoichiometry N [1]
1 | NC(=O)c1ccc[n+]([C@@H]2O[C@H](COP(=O)(O)OP(=O)(O)OC[C@H]3O[C@@H](n4cnc5c(N)ncnc54)[C@H](O)[C@@H]3O)[C@@H](O)[C@H]2O)c1 [NAD^+] | 87 | 
2 | OCc1ccco1 [furfuryl alcohol] | > 1000 | 
3 | FurX, Zn-dependent alcohol dehydrogenase from Cupriavidus necator JMP134 (enzyme) |  | 4
